This note sets out measurements from patent publication US20100311767A1 (priority 2007, published 2010).

In the test the test system is cultured hippocampal neurons.

Take `CC(C)NCC(O)c1ccc(O)c(O)c1` (stereo not drawn) [isoproterenol, 4-[1-hydroxy-2-(1-methylethylamino)ethyl]benzene-1,2-diol]: the “frequency of spontaneous IPSCs” value worked out at 122±58%. For ω-agatoxin IVA, the “amplitude of miniature PSCs” value was found to be 90±7% and the “frequency of miniature PSCs” value is listed as 27±7%.
